A short description of the data set: Bioavailability trial of nicardipine in rhesus monkeys: nasal composition compared with oral route (gastric tube), plasma levels by gas chromatography. The class given is in vivo. To be noted: rhesus monkey; for AUC(0-t) at 24 h: read-out: AUC 0-24 h (area under the curve); for Tmax: read-out: T max (time to obtain C max). How it is done:
This activity has been confirmed by standard bioavailability trials wherein nasal pharmaceutical compositions of the invention are compared with other conventional compositions and blood levels of drug are measured. In one trial, a nasal composition of the invention comprising 4 mg nicardipine hydrochloride per ml of distilled water has been administered nasally to rhesus monkeys (weight from 7 to 12 kg). A dose of 0.5 ml of this composition is sprayed each morning into each nostril. Blood samples are taken up 15 minutes, 30 minutes, 1 hour, 2 hours, 3 hours, 4 hours, 6 hours, 8 hours and 24 hours after administration and treated with lithium heparin. The treated blood samples are centrifuged and the concentration of nicardipine in the plasma is determined in conventional manner by converting the nicardipine into a corresponding pyridine derivative and determination by gas chromatographic techniques. The same animals are also treated in another similar trial with orally administered nicardipine at a dose of 20 mg by mean of a gastric tube.

Where [1] appears, read: oral route (gastric tube), 20 mg.

SMILES strings stand for the structures. Where two headings read alike, the source gives them in different places.

For `COC(=O)C1=C(C)NC(C)=C(C(=O)OCCN(C)Cc2ccccc2)C1c1cccc([N+](=O)[O-])c1` (stereo not shown) [nicardipine], where the note is “nasal route, 4 mg”, the AUC(0-t) at 24 h was determined as 192 ± 36.3 ng·h/mL and the Tmax was determined as 0.4 ± 0.1 h. Under setting [1], the AUC(0-t) at 24 h worked out at 457 ± 86.6 ng·h/mL and the Tmax amounted to 2.1 ± 0.5 h.

The values are drawn from patent US4885305A, “Nasal compositions” (Yamanouchi Pharmaceutical Co., Ltd., priority 1984, dated 1989).
